What was measured:
Type in all cases: biochemical
IGF-1R = molecular target: T1, IGF-1R (Homo sapiens, UniProt P08069); experiment: In vitro IGF-1R enzymatic assay (ADP-Glo kinase assay); conditions: activated IGF-1R
T1 construct: purchased Millipore 14-802
Description: IC50 values of the compounds of the invention against IGF-1R and IR were measured in vitro using an ADP-Glo kinase assay Kit (Promega). […] Kinase reactions in both assays were conducted at 30° C. for 20 min with increasing concentrations of compounds of the invention.
Additional compounds of the invention were screened against activated IGF-1R.

c-Met = c-Met (Homo sapiens, UniProt P08581); experiment: HotSpot kinase assay: c-Met; conditions: 100 nM compound, read-out: % Enzyme Inhibition @ 100 nM c-MET
Description: (§1) Kinase assays were performed using additional compounds against a panel of 4 kinases: AXL; c-Met; c-Mer; and Trk C. Each compound was tested at a concentration of 0.1 M in single duplicate mode against the 4 kinases. Compounds were prepared as 10 mM stock solutions in DMSO prior to use in the assay. […] IC50 values and curve fits were obtained using Prism (GraphPad Software).
(§2) The screening was performed using the “HotSpot” assay platform. The assay measures the conversion of a peptide substrate to ^33P-labelled phosphorylated product. Briefly, specific kinase/substrate pairs along with required cofactors were prepared in reaction buffer. Specifically, the substrate was prepared in reaction buffer (20 mM Hepes, pH 7.5; 10 mM MgCl2; 1 mM EGTA; 0.02% Brij35; 0.02 mg/mL BSA; 0.1 mM Na3VO4; 2 mM DTT; 1% DMSO), followed by delivery of any required cofactor to the resulting substrate solution. The corresponding kinase was delivered into the substrate solution and the reaction mixture was mixed gently. Compound was delivered into the reaction mixture, followed 15-20 minutes later by addition of a mixture of ATP (Sigma, St. Louis Mo.) and ^33P ATP (specific activity 0.01 μCi/μL final; Perkin Elmer, Waltham, Mass.) to a final concentration of 10 μM-30 μM to initiate the reaction. […] The percent of enzyme inhibition was calculated based on the percent of remaining kinase activity.

AXL = molecular target: T2, AXL (Homo sapiens, UniProt P30530); experiment: HotSpot kinase assay: AXL; conditions: 100 nM compound, read-out: % Enzyme Inhibition @ 100 nM AXL
T2 sequence (P30530 26-894): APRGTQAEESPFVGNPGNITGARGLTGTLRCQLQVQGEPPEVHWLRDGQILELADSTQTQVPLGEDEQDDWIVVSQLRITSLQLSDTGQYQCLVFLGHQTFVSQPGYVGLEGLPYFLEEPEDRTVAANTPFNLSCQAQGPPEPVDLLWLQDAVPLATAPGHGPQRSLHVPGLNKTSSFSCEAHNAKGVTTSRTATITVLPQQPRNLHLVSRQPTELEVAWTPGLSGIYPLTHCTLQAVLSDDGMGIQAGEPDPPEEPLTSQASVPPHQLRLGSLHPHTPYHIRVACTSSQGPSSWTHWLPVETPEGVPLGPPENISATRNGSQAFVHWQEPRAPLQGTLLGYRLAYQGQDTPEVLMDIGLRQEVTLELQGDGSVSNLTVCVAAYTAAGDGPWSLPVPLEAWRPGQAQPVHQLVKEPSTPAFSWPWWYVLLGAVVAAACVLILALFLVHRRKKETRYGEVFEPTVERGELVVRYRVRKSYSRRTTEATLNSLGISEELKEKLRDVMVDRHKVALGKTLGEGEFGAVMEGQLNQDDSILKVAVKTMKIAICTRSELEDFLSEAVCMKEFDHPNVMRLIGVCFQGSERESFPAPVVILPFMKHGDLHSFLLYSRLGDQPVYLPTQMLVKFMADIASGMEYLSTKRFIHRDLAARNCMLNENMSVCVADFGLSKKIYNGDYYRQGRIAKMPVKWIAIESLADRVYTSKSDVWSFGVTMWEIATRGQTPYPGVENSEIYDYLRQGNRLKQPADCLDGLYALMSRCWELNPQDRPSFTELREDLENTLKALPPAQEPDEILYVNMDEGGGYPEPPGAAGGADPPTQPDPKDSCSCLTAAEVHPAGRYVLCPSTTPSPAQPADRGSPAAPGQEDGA
Description: as §1, §2

Trk C = Trk C (Homo sapiens, UniProt Q16288); experiment: HotSpot kinase assay: Trk C
Trk A = Trk A (Homo sapiens, UniProt P04629); experiment: HotSpot kinase assay: Trk A; conditions: 100 nM compound, read-out: % Enzyme Inhibition @ 100 nM Trk A
Description: as §1, with “of 3” for “of 4”, “kinases: Trk A; Trk B;” for “kinases: AXL; c-Met; c-Mer;”, “0.1 μM” for “0.1 M”, “the 3” for “the 4”, “Software). […]” for “Software).”
The screening was performed using the “HotSpot” assay platform. The assay measures the conversion of a peptide substrate to ^33P-labelled phosphorylated product. Briefly, specific kinase/substrate pairs along with required cofactors were prepared in reaction buffer. Specifically, the substrate was prepared in reaction buffer (20 mM Hepes, pH 7.5; 10 mM MgCl2; 1 mM EGTA; 0.02% Brij35; 0.02 mg/mL BSA; 0.1 mM Na3VO4; 2 mM DTT; 1% DMSO), followed by delivery of any required cofactor to the resulting substrate solution. The corresponding kinase was delivered into the substrate solution and the reaction mixture was mixed gently. Compound was delivered into the reaction mixture, followed 15-20 minutes later by addition of a mixture of ATP (Sigma, St. Louis Mo.) and ^33P ATP (specific activity 0.01 μCi/μL final; Perkin Elmer, Waltham, Mass.) to a final concentration of 10 μM-30 μM to initiate the reaction. Reactions were carried out at room temperature for 120 minutes, followed by spotting of the reactions onto P81 ion exchange filter paper (Whatman #3698-915; Whatman Inc., Piscataway, N.J.). Unbound phosphate was removed by extensive washing of filters in 0.75% phosphoric acid. […] The percent of enzyme inhibition was calculated based on the percent of remaining kinase activity.

Trk C, sequence (Q16288 32-839): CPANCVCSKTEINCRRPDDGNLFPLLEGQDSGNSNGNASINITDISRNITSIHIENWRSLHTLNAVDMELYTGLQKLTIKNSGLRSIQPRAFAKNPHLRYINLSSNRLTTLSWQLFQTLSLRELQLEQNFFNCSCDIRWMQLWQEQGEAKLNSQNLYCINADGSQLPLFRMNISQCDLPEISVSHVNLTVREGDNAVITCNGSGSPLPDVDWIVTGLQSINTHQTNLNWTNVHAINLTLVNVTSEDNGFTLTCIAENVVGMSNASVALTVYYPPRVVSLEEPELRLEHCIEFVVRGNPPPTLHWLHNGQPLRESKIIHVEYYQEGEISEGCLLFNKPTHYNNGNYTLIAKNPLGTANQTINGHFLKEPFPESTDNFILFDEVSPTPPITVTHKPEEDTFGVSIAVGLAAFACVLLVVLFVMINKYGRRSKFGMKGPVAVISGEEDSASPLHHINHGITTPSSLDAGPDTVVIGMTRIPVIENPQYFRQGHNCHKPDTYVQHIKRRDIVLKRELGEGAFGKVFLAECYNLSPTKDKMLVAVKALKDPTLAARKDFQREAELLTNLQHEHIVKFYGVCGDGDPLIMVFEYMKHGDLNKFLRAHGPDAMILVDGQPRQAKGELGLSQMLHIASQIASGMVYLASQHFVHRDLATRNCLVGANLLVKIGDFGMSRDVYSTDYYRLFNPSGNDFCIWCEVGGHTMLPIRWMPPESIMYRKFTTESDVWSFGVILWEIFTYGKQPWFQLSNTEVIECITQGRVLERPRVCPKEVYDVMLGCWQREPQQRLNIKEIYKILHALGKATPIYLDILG
T1 sequence (P08069 31-1367): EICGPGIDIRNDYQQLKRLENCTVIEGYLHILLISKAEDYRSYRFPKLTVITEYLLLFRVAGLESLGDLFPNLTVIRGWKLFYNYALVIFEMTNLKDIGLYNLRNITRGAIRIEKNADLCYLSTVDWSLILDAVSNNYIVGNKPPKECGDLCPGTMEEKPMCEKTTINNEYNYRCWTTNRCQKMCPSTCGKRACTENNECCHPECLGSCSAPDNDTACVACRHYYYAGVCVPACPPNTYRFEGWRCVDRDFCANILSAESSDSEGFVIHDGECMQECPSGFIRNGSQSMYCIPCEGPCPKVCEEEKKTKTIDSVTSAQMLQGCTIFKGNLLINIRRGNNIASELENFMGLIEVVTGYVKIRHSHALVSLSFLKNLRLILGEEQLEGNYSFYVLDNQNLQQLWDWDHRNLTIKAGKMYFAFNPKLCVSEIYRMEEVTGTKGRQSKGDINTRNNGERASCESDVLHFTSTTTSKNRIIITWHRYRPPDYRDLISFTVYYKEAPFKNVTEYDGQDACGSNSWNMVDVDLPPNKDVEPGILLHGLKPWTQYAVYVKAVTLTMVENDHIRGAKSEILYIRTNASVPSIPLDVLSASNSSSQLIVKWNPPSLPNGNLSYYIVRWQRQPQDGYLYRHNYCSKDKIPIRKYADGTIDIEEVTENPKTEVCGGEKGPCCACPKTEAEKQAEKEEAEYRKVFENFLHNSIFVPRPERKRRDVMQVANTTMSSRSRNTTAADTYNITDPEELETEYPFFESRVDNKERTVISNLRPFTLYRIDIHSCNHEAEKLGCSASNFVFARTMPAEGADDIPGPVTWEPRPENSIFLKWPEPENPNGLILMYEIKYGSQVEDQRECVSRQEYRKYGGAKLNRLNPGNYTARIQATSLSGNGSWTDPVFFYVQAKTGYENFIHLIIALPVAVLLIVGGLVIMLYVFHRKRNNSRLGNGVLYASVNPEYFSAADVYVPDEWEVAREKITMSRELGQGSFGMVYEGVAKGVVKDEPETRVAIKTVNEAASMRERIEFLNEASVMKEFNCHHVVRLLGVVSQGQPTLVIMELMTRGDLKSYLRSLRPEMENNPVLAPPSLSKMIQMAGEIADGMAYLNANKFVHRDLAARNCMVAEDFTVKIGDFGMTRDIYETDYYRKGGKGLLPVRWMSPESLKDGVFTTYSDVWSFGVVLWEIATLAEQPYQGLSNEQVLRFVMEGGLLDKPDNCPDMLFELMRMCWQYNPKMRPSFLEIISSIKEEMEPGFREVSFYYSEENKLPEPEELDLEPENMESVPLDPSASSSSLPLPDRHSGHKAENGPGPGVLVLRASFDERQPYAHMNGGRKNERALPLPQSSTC
c-Met, sequence (P08581 25-1390): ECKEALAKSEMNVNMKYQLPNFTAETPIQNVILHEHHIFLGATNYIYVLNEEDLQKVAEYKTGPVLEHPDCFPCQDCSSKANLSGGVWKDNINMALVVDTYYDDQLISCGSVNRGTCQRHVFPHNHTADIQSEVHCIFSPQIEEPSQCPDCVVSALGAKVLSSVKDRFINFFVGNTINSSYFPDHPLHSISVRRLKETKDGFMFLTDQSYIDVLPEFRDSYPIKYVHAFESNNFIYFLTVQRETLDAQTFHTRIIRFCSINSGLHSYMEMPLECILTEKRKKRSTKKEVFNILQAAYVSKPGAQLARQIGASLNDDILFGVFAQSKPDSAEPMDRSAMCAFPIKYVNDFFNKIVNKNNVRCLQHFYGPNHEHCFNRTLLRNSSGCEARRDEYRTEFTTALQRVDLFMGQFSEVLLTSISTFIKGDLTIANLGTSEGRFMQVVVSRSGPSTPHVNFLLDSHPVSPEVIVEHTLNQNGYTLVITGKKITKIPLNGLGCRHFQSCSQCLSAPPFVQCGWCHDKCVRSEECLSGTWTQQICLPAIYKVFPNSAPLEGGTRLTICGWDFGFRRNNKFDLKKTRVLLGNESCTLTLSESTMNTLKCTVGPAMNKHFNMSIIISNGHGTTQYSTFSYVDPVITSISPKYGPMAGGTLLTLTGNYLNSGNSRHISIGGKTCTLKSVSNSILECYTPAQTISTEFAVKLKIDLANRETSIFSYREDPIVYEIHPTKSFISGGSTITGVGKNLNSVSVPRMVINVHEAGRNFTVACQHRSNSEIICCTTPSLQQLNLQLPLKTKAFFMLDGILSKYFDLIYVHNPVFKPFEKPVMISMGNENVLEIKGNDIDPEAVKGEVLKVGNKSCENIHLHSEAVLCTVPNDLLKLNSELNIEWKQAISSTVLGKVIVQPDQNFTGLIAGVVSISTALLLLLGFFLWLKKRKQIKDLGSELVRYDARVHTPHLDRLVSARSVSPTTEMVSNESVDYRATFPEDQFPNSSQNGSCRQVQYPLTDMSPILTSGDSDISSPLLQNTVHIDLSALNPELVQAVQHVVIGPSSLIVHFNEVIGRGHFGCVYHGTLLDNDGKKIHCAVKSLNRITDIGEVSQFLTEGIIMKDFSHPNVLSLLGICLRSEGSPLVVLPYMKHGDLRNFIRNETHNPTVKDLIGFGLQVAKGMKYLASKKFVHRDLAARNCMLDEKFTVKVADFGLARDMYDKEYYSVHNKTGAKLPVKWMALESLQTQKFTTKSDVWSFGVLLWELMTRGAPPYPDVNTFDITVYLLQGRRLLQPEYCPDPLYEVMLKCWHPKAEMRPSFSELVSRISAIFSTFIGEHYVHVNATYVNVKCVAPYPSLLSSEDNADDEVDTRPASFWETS
Trk A, sequence (P04629 33-796): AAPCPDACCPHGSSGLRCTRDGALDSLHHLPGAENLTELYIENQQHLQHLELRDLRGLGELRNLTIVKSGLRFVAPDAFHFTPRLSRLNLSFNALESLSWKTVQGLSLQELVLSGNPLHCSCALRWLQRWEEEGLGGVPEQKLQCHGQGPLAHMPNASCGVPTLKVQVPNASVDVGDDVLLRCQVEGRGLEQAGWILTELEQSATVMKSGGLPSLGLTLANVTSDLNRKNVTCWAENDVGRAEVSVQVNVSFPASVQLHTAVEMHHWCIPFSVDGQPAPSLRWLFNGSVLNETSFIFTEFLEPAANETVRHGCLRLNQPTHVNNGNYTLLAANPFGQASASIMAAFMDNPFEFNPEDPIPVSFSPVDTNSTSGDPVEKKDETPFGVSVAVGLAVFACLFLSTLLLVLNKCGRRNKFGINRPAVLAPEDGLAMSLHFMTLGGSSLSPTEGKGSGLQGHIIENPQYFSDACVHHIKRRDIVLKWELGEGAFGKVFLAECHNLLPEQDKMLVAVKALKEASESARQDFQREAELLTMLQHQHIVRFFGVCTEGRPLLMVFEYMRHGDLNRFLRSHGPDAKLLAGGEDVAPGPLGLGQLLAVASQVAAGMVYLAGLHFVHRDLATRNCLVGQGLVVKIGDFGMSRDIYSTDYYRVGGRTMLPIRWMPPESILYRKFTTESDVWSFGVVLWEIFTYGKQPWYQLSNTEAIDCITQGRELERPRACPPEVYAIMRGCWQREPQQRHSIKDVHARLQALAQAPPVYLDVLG

CC(C)c1cc(Nc2nc(N3CCCC3C(=O)N(C)C)nc3c2CCC3)n[nH]1 (single isomer, unassigned) [Compound 20b, 1-(4-(5-isopropyl-1H-pyrazol-3-ylamino)-6,7-dihydro-5H-cyclopenta[d]pyrimidin-2-yl)-N,N-dimethylpyrrolidine-2-carboxamide]
IC50 (IGF-1R): 3.2 µM | inhibition at 0.03 µM (IGF-1R; 30 nM, average, read-out: % Inh @ 30 nM Avg): 9% | inhibition at 0.1 µM (c-Met): < 39% | inhibition at 0.1 µM (AXL): < 39% | inhibition at 0.1 µM (Trk C; 100 nM compound, HotSpot, read-out: % Enzyme Inhibition @ 100 nM Trk C): > 60% | IC50 (Trk C; Trk C): 0.0551 µM | selectivity for Trk C inhibition over IGF-1R (Trk C; Trk C over IGF-1R): about 60 fold | selectivity for Trk C inhibition over IR (Trk C; Trk C over IR): about 30 fold | inhibition at 0.1 µM (Trk A): < 39%
